Entries after “also recorded” stand apart in the source; their conditions may differ.
Tested on: rats having DREZs avulsed at T13/L1
Experiment: Allodynia (von Frey test) in rat T13/L1 DREZ avulsion model of central neuropathic pain
Format: in vivo
Protocol: Rats were anesthetized using isoflurane. Under aseptic condition, the skin was incised in the midline along the posterior thoracolumbar region. The paravertebral muscles were retracted laterally to expose the posterior aspect of the spinal laminae. Laminectomies were performed and the dura mater then incised along the midline to expose the dorsal rootlets of T13 and L1. The dorsal rootlets of T13 and L1 were then avulsed out of the spinal cord on the left side using micronstrumentation. Hemostasis was obtained and a layer of gelfoam placed over the dura. The wound was closed in layers. Perioperative antibiotics were administered in prophylaxis against infection. Subject rats were tested for allodynia of the hindpaws with the von Frey hair test, beginning day one post surgery and continuing daily over the subsequent four weeks. Rat animal model was generated similar to above. In one experiment, DREZ avulsion was unilateral (FIG. 2). In one experiment, DREZ avulsion was bilateral (FIG. 3). Ibudilast was delivered intrathecally daily in a corn oil carrier, with sham controls receiving only the corn oil. […] AV411 was administered to animals avulsed at the T13 and L1 dorsal root entry zones. The compound AV411 was administered to animals subject to the T13 and L1 hind paws. […] The reversal begins after 5-6 injections and continues to reverse behavior until day 33. The contralateral paw began to resolve at day 28 and the ipsilateral paw was still sensitive at day 33. […] Response thresholds on the von Frey test were recorded prior to and across a timecourse after avulsion surgery. Beginning on Day 12 post-surgery, rats (n=4/group) received once daily s.c. injections of either the glial activation inhibitor AV411/Ibudilast (Sigma; 5-mg/kg or 10-mg/kg) or equivolume vehicle (corn oil; 0.5-ml/kg). Daily drug treatment and intermittent behavioral testing continued through 33 days after surgery.

## CC(C)C(=O)c1c(C(C)C)nn2ccccc12 [AV411, 2-methyl-1-(2-propan-2-ylpyrazolo[1,5-a]pyridin-3-yl)propan-1-one]
Once daily s.c. 5-mg/kg or 10-mg/kg from Day 12 post-surgery
  onset of reversal of allodynia: 5-6 injections
Once daily s.c. 5-mg/kg or 10-mg/kg from Day 12 post-surgery through day 33
  effect on allodynia induced by unilateral T13/L1 dorsal root avulsion (von Frey test): reversed allodynia; also recorded: induces bilateral mechanical allodynia; also recorded: reverses bilateral allodynia
Once daily s.c. 5-mg/kg vs 10-mg/kg
  comparison of the 5 mg and 10 mg dose on allodynia: not differences between the 5 mg and 10 mg dose
Once daily s.c. from Day 12 post-surgery, days after surgery
  day until which reversal of behavior continues: ≤ 33 days
Unilateral (FIG. 2) or bilateral (FIG. 3) DREZ avulsion, delivered intrathecally daily in corn oil carrier
  effect on allodynia in the model: decreases allodynia

— patent publication US20110229412A1, “ANIMAL MODEL OF CENTRAL NEUROPATHIC PAIN AND MEHTODS OF MAKING AND USING THE SAME” (priority 2008, published 2011)
